Tested on: ATF4
Assay: HEK-ATF4 High Content Imaging assay (prevention of Tunicamycin induced ISR, ATF4 nucleus/cytoplasm signal ratio)
Assay type: cell-based
Settings: Homo sapiens, wild-type HEK293 cells, 6 h incubation, ATF4 immunofluorescence
Method: HEK-ATF4 High Content Imaging assay
Example compounds were tested in the HEK-ATF4 High Content Imaging assay to assess their pharmacological potency to prevent Tunicamycin induced ISR. Wild-type HEK293 cells were plated in 384-well imaging assay plates at a density of 12,000 cells per well in growth medium (containing DMEM/F12, 10% FBS, 2 mM L-Glutamine, 100 U/mL Penicillin—100 μg/mL Streptomycin) and incubated at 37° C., 5% CO2. 24 h later, the medium was changed to 50 μL assay medium per well (DMEM/F12, 0.3% FBS, 2 mM L-Glutamine, 100 U/mL Penicillin—100 μg/mL Streptomycin). Example compounds were serially diluted in DMSO, spotted into intermediate plates and prediluted with assay medium containing 3.3 μM Tunicamycin to give an 11-fold excess of final assay concentration. In addition to the example compound testing area, the plates also contained multiples of control wells for assay normalization purposes, wells containing Tunicamycin but no example compounds (High control), as well as wells containing neither example compound nor Tunicamycin (Low control). The assay was started by transferring 5 μL from the intermediate plate into the assay plates, followed by incubation for 6 h at 37° C., 5% CO2. Subsequently, cells were fixed (4% PFA in PBS, 20 min at r.t.) and submitted to indirect ATF4 immunofluorescence staining (primary antibody rabbit anti ATF4, clone D4B8, Cell Signaling Technologies; secondary antibody Alexa Fluor 488 goat anti-rabbit IgG (H+L), Thermofisher Scientific). Nuclei were stained using Hoechst dye (Thermofisher Scientific), and plates were imaged on an Opera Phenix High Content imaging platform equipped with 405 nm and 488 nm excitation. Finally, images were analyzed using script based algorithms. The main readout HEK-ATF4 monitored the ATF4 signal ratio between nucleus and cytoplasm. Tunicamycin induced an increase in the overall ATF4 ratio signal, which was prevented by ISR modulating example compounds. In addition, HEK-CellCount readout was derived from counting the number of stained nuclei corresponding to healthy cells. This readout served as an internal toxicity control.

| Structure (SMILES) | IC50 [nM] |
| --- | --- |
| O=C(COc1ccc(Cl)c(F)c1)N[C@H]1CC[C@H](c2nc3cccc(Cl)c3o2)NC1 [Example 10, N-[(3S,6R)-6-(7-chloro-1,3-benzoxazol-2-yl)piperidin-3-yl]-2-(4-chloro-3-fluorophenoxy)acetamide] | 500 to 2000 |
| O=C(COc1ccc(Cl)c(F)c1)N[C@H]1CC[C@H](c2nc3ccc(C(F)(F)F)cc3o2)NC1 [Example 16, 2-(4-chloro-3-fluorophenoxy)-N-[(3S,6R)-6-[6-(trifluoromethyl)-1,3-benzoxazol-2-yl]piperidin-3-yl]acetamide] | 1 to 500 |
| O=C(COc1ccc(Cl)c(F)c1)N[C@H]1CC[C@H](c2nc3ccc(Cl)cc3o2)NC1 [Example 2, N-[(3S,6R)-6-(6-chloro-1,3-benzoxazol-2-yl)piperidin-3-yl]-2-(4-chloro-3-fluorophenoxy)acetamide] | 500 to 2000 |
| O=C(COc1ccc(Cl)c(F)c1)N[C@H]1CC[C@H](c2nc3ccc(OC(F)(F)F)cc3o2)NC1 [Example 12, 2-(4-chloro-3-fluorophenoxy)-N-[(3S,6R)-6-[6-(trifluoromethoxy)-1,3-benzoxazol-2-yl]piperidin-3-yl]acetamide] | 1 to 500 |
| O=C(COc1ccc(Cl)c(F)c1)N[C@H]1CC[C@H](c2cn3ccc(C(F)(F)F)cc3n2)NC1 [Example 8, 2-(4-chloro-3-fluoro-phenoxy)-N-[(3S,6R)-6-[7-(trifluoromethyl)imidazo[1,2-a]pyridin-2-yl]-3-piperidyl]acetamide] | 2000 to 15000 |
| O=C(COc1ccc(Cl)c(F)c1)N[C@H]1CC[C@H](c2nc3c(Cl)cccc3o2)NC1 [Example 18, N-[(3S,6R)-6-(4-chloro-1,3-benzoxazol-2-yl)piperidin-3-yl]-2-(4-chloro-3-fluorophenoxy)acetamide] | 2000 to 15000 |
| O=C(COc1ccc(Cl)c(F)c1)N[C@H]1CC[C@H](c2nc3cc(Cl)ccc3o2)NC1 [Example 4, N-[(3S,6R)-6-(5-chloro-1,3-benzoxazol-2-yl)piperidin-3-yl]-2-(4-chloro-3-fluorophenoxy)acetamide] | 2000 to 15000 |
| O=C(COc1ccc(Cl)c(F)c1)N[C@H]1CC[C@H](c2cn3cc(C(F)(F)F)ccc3n2)NC1 [Example 6, 2-(4-chloro-3-fluoro-phenoxy)-N-[(3S,6R)-6-[6-(trifluoromethyl)imidazo[1,2-a]pyridin-2-yl]-3-piperidyl]acetamide] | 2000 to 15000 |
| O=C(COc1ccc(Cl)c(F)c1)N[C@H]1CC[C@H](c2nc3ccc(OC(F)F)cc3o2)NC1 [Example 14, 2-(4-chloro-3-fluorophenoxy)-N-[(3S,6R)-6-[6-(difluoromethoxy)-1,3-benzoxazol-2-yl]piperidin-3-yl]acetamide] | 500 to 2000 |
